Reference: PubChem BioAssay AID2060899 (Molecular Pharmacology Branch, DTP, NCI, 2025)

System: 565726-208-R1-J5-PDC complex spheroids, growth inhibition
Experiment: Anticancer human tumor 565726-208-R1-J5-PDC patient-derived pancreatic adenocarcinoma cell line growth inhibition [RAS]
Conditions: for IC50: curve of first compound; for viability, T/C: stronger effect = lower value
Outline: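 Tumour cells grown as complex spheroids with HUVEC endothelial cells and mesenchymal stem cells, treated with RAS pathway inhibitor combinations. Each agent spans half-log steps from near clinical Cmax, or 10 microM where Cmax is unknown.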

[1] = second compound 0.00316 µM, first compound 0.0316 µM
[2] = second compound 0.00316 µM, first compound 0.1 µM
[3] = second compound 0.00316 µM, first compound 0.316 µM
[4] = second compound 0.00316 µM, first compound 1 µM
[5] = second compound 0.01 µM, first compound 0.0316 µM
[6] = second compound 0.01 µM, first compound 0.1 µM
[7] = second compound 0.01 µM, first compound 0.316 µM
[8] = second compound 0.01 µM, first compound 1 µM
[9] = second compound 0.0316 µM, first compound 0.0316 µM
[10] = second compound 0.0316 µM, first compound 0.1 µM
[11] = second compound 0.0316 µM, first compound 0.316 µM
[12] = second compound 0.0316 µM, first compound 1 µM
[13] = second compound 0.1 µM, first compound 0.0316 µM
[14] = second compound 0.1 µM, first compound 0.1 µM
[15] = second compound 0.1 µM, first compound 0.316 µM
[16] = second compound 0.1 µM, first compound 1 µM
[17] = second compound 0.316 µM, first compound 0.0316 µM
[18] = second compound 0.316 µM, first compound 0.1 µM
[19] = second compound 0.316 µM, first compound 0.316 µM
[20] = second compound 0.316 µM, first compound 1 µM
[21] = second compound 1 µM, first compound 0.0316 µM
[22] = second compound 1 µM, first compound 0.1 µM
[23] = second compound 1 µM, first compound 0.316 µM
[24] = second compound 1 µM, first compound 1 µM
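Note: spheroids exposed to compounds for seven days before readout.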
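Throughout, for viability, T/C: 100% = DMSO vehicle control viability.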

NC1c2ccccc2OC12CCN(c1cnc3c(N4CCCc5ncccc54)n[nH]c3n1)CC2 (stereo unspecified) + C=CC(=O)N1CCN(c2nc(OCC3CCCN3C)nc3c(F)c(-c4nc(N)cc(C)c4C(F)(F)F)c(Cl)cc23)C(C)C1
IC50 (second compound 0.00316 µM): > 10000 nM | IC50 (second compound 0.01 µM): > 10000 nM | IC50 (second compound 0.0316 µM): > 10000 nM | IC50 (second compound 0.1 µM): > 10000 nM | IC50 (second compound 0.316 µM): > 10000 nM | IC50 (second compound 1 µM): > 10000 nM | viability, T/C [1]: 72.7% | viability, T/C [2]: 94.8% | viability, T/C [3]: 66.4% | viability, T/C [4]: 59.4% | viability, T/C (second compound 0.00316 µM, first compound 3.16 µM): 75.9% | viability, T/C (second compound 0.00316 µM, first compound 10 µM): 106% | viability, T/C [5]: 83.5% | viability, T/C [6]: 121% | viability, T/C [7]: 70.8% | viability, T/C [8]: 59.3% | viability, T/C (second compound 0.01 µM, first compound 3.16 µM): 79.5% | viability, T/C (second compound 0.01 µM, first compound 10 µM): 102% | viability, T/C [9]: 122% | viability, T/C [10]: 135% | viability, T/C [11]: 61.5% | viability, T/C [12]: 70.8% | viability, T/C (second compound 0.0316 µM, first compound 3.16 µM): 85% | viability, T/C (second compound 0.0316 µM, first compound 10 µM): 92.4% | viability, T/C [13]: 136% | viability, T/C [14]: 131% | viability, T/C [15]: 88.6% | viability, T/C [16]: 56.3% | viability, T/C (second compound 0.1 µM, first compound 3.16 µM): 55% | viability, T/C (second compound 0.1 µM, first compound 10 µM): 93.7% | viability, T/C [17]: 108% | viability, T/C [18]: 134% | viability, T/C [19]: 59.7% | viability, T/C [20]: 64.7% | viability, T/C (second compound 0.316 µM, first compound 3.16 µM): 58.6% | viability, T/C (second compound 0.316 µM, first compound 10 µM): 104% | viability, T/C [21]: 99.5% | viability, T/C [22]: 109% | viability, T/C [23]: 69.3% | viability, T/C [24]: 61.8% | viability, T/C (second compound 1 µM, first compound 3.16 µM): 71.4% | viability, T/C (second compound 1 µM, first compound 10 µM): 106%

CCc1c2c(nc3ccc(O)cc13)-c1cc3c(c(=O)n1C2)COC(=O)[C@]3(O)CC + C=CC(=O)N1CCN(c2nc(OCC3CCCN3C)nc3c(F)c(-c4nc(N)cc(C)c4C(F)(F)F)c(Cl)cc23)C(C)C1
IC50 (second compound 0.00316 µM): 4.93 nM | IC50 (second compound 0.01 µM): 4.61 nM | IC50 (second compound 0.0316 µM): 5.78 nM | IC50 (second compound 0.1 µM): 5.53 nM | IC50 (second compound 0.316 µM): 3.96 nM | IC50 (second compound 1 µM): 5.1 nM | viability, T/C (second compound 0.00316 µM, first compound 0.000949 µM): 88.2% | viability, T/C (second compound 0.00316 µM, first compound 0.003 µM): 61.3% | viability, T/C (second compound 0.00316 µM, first compound 0.00949 µM): 34.5% | viability, T/C (second compound 0.00316 µM, first compound 0.03 µM): 23.3% | viability, T/C (second compound 0.00316 µM, first compound 0.0949 µM): 15.2% | viability, T/C (second compound 0.00316 µM, first compound 0.3 µM): 7.24% | viability, T/C (second compound 0.01 µM, first compound 0.000949 µM): 98.5% | viability, T/C (second compound 0.01 µM, first compound 0.003 µM): 58.2% | viability, T/C (second compound 0.01 µM, first compound 0.00949 µM): 33.8% | viability, T/C (second compound 0.01 µM, first compound 0.03 µM): 24.9% | viability, T/C (second compound 0.01 µM, first compound 0.0949 µM): 14.3% | viability, T/C (second compound 0.01 µM, first compound 0.3 µM): 8.62% | viability, T/C (second compound 0.0316 µM, first compound 0.000949 µM): 121% | viability, T/C (second compound 0.0316 µM, first compound 0.003 µM): 68.4% | viability, T/C (second compound 0.0316 µM, first compound 0.00949 µM): 35.4% | viability, T/C (second compound 0.0316 µM, first compound 0.03 µM): 21.1% | viability, T/C (second compound 0.0316 µM, first compound 0.0949 µM): 13.2% | viability, T/C (second compound 0.0316 µM, first compound 0.3 µM): 8.94% | viability, T/C (second compound 0.1 µM, first compound 0.000949 µM): 134% | viability, T/C (second compound 0.1 µM, first compound 0.003 µM): 64.1% | viability, T/C (second compound 0.1 µM, first compound 0.00949 µM): 39.3% | viability, T/C (second compound 0.1 µM, first compound 0.03 µM): 18.2% | viability, T/C (second compound 0.1 µM, first compound 0.0949 µM): 15.1% | viability, T/C (second compound 0.1 µM, first compound 0.3 µM): 8.7% | viability, T/C (second compound 0.316 µM, first compound 0.000949 µM): 113% | viability, T/C (second compound 0.316 µM, first compound 0.003 µM): 53% | viability, T/C (second compound 0.316 µM, first compound 0.00949 µM): 33.1% | viability, T/C (second compound 0.316 µM, first compound 0.03 µM): 21.1% | viability, T/C (second compound 0.316 µM, first compound 0.0949 µM): 13.3% | viability, T/C (second compound 0.316 µM, first compound 0.3 µM): 8.96% | viability, T/C (second compound 1 µM, first compound 0.000949 µM): 130% | viability, T/C (second compound 1 µM, first compound 0.003 µM): 59.1% | viability, T/C (second compound 1 µM, first compound 0.00949 µM): 35% | viability, T/C (second compound 1 µM, first compound 0.03 µM): 32.9% | viability, T/C (second compound 1 µM, first compound 0.0949 µM): 18.6% | viability, T/C (second compound 1 µM, first compound 0.3 µM): 11.7%

Nc1ccn(C2OC(CO)C(O)C2(F)F)c(=O)n1 (stereo unspecified) + C=CC(=O)N1CCN(c2nc(OCC3CCCN3C)nc3c(F)c(-c4nc(N)cc(C)c4C(F)(F)F)c(Cl)cc23)C(C)C1
IC50 (second compound 0.00316 µM): 94.9 nM | IC50 (second compound 0.01 µM): 93.4 nM | IC50 (second compound 0.0316 µM): > 1000 nM | IC50 (second compound 0.1 µM): 230 nM | IC50 (second compound 0.316 µM): 88.8 nM | IC50 (second compound 1 µM): 1000 nM | viability, T/C (second compound 0.00316 µM, first compound 0.00316 µM): 89.3% | viability, T/C (second compound 0.00316 µM, first compound 0.01 µM): 151% | viability, T/C [1]: 76.5% | viability, T/C [2]: 54.6% | viability, T/C [3]: 52.6% | viability, T/C [4]: 39% | viability, T/C (second compound 0.01 µM, first compound 0.00316 µM): 113% | viability, T/C (second compound 0.01 µM, first compound 0.01 µM): 149% | viability, T/C [5]: 84.9% | viability, T/C [6]: 48% | viability, T/C [7]: 50.5% | viability, T/C [8]: 44.8% | viability, T/C (second compound 0.0316 µM, first compound 0.00316 µM): 148% | viability, T/C (second compound 0.0316 µM, first compound 0.01 µM): 160% | viability, T/C [9]: 77.1% | viability, T/C [10]: 59.4% | viability, T/C [11]: 48.9% | viability, T/C [12]: 49% | viability, T/C (second compound 0.1 µM, first compound 0.00316 µM): 156% | viability, T/C (second compound 0.1 µM, first compound 0.01 µM): 134% | viability, T/C [13]: 89.5% | viability, T/C [14]: 58.1% | viability, T/C [15]: 47.5% | viability, T/C [16]: 46.3% | viability, T/C (second compound 0.316 µM, first compound 0.00316 µM): 139% | viability, T/C (second compound 0.316 µM, first compound 0.01 µM): 134% | viability, T/C [17]: 72.7% | viability, T/C [18]: 46.4% | viability, T/C [19]: 52.7% | viability, T/C [20]: 41.5% | viability, T/C (second compound 1 µM, first compound 0.00316 µM): 153% | viability, T/C (second compound 1 µM, first compound 0.01 µM): 142% | viability, T/C [21]: 82.3% | viability, T/C [22]: 58.3% | viability, T/C [23]: 55.3% | viability, T/C [24]: 45.6%
